Measurements from PMC10338423, “Synthesis and preclinical evaluation of a novel fluorine-18 labeled small-molecule PET radiotracer for imaging of CXCR3 receptor in mouse models of atherosclerosis” (EJNMMI Research, 2023).

How the values were obtained:
[1] = Stability of formulated radiotracer (HPLC); format: physicochemical; conditions: formulated in 10% EtOH/0.9% saline containing 0.5% sodium ascorbate
Description: The addition of AcOH and the high temperature was necessary for an improved RCC. A usual C18 SPE workup followed by semi-preparative reverse phase HPLC purification afforded [^18F]1 in RCY of 13 ± 2% (n = 10) at the end of synthesis (EOS). The semi-preparative HPLC chromatograms of [^18F]1 is shown in Additional file 1: Fig. S1(a). The HPLC purification was performed using a Phenomenex Gemini C18 Semi-preparative column (5 µm, 250 × 10 mm) equipped with UV (254 nm) and radioactivity detectors by eluting with an isocratic mobile phase composed of 65% MeCN, 5% MeOH, 30% water, and 0.1% triethylamine (NEt3) at a flow rate of 5 mL/min. The radioactive [^18F]1 was collected between 16 and 17 min and was well-separated from the rest of the UV and radioactivity peaks. After the purification, the collected product was formulated in 10% EtOH/0.9% saline containing 0.5% sodium ascorbate. The total radiosynthesis time was 100 min at the EOS. The final reformulated aliquot was further characterized by HPLC analysis using a Phenomenex Gemini C18 analytical column (5 µm, 250 × 4.6 mm) equipped with UV and radioactivity detectors by eluting with the same HPLC solvent at a flow rate of 1 mL/min. The radioactive peak was eluted between 15 and 17 min. […]

[2] = target: T1, CXCR3 (Mus musculus, UniProt O88410); assay: PET/CT imaging, baseline and self-blocking, in ApoE KO mice on high-fat diet; format: in vivo
T1 construct: tissue Jackson Laboratory (mice); host or cells: In vivo: atherosclerotic abdominal aorta and brown adipose tissue of ApoE KO mice (high-fat diet) and C57BL/6 control mice (normal diet)
T1 sequence (O88410 1-367): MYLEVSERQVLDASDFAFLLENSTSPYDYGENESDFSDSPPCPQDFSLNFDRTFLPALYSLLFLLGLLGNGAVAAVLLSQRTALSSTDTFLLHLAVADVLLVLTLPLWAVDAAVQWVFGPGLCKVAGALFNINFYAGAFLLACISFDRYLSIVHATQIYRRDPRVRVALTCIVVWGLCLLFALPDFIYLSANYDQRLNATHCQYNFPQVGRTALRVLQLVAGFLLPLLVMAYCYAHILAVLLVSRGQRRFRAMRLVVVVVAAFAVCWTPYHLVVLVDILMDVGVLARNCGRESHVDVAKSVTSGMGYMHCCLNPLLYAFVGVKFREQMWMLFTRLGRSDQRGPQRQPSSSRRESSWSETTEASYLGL
Text: [^18F]1 was further evaluated for reliability as a CXCR3 radiotracer using mouse models of atherosclerosis. For this purpose, we tested [^18F]1 in ApoE KO mice, a widely used murine model of atherosclerosis. Six-week-old ApoE KO male mice (N = 6) and C57BL/6 male control mice (i.e., a background strain of ApoE KO mouse, ApoE-wildtype control; N = 6) were purchased from Jackson Laboratory (Bar Harbor, ME). The ApoE KO mice were placed on a high-fat diet over 12 weeks to accelerate atherosclerosis development. […] At 12 weeks, PET/computed tomography (CT) studies were performed using both mice groups. Dynamic PET scans (90 min acquisition) were performed beginning 5 min after the intravenous injection of [^18F]1 followed by a ~ 10 min CT scan. Usually, one week after the baseline PET/CT scan, the corresponding blocking PET/CT scan was performed. This time, 1·HCl salt (5 mg/kg) was used as a blocking agent and intravenously injected 5 min before the radiotracer injection.
All animal studies were performed at the VA Biomolecular Imaging Center (VA BIC) at the Harry S. Truman Memorial Veterans’ Hospital (Columbia, MO). Six-week-old ApoE KO male mice and C57BL/6 control male mice were purchased from Jackson Laboratory. All mice were housed in the controlled vivarium during the studies. All ApoE KO mice were fed with high-fat chow that contained 42% fat, 34% of that contained unsaturated fat (TD.88137, Envigo, Indianapolis, IN), one week after the arrival and continued the feeding until the end of the study. The first PET/CT scans were performed 12 weeks after initiating the high-fat diet, and the second PET/CT scans that used 1·HCl as a blocking agent were performed at least one week after the first PET/CT scans. Meanwhile, C57BL/6 control mice were fed with normal chow over the same schedule to match with ApoE KO mice.
Maximum intensity micro-PET images were obtained on a Siemens INVEON small-animal PET/CT scanner (Siemens Medical Solutions USA, Inc., Malvern, PA). […] The micro-PET data was analyzed using Siemens Inveon Research Workplace, General Analysis software. […]

[3] = 1·HCl 5 mg/kg i.v. 5 min before tracer

Structure (SMILES): CC[C@H]1CN(c2ncc(-c3nnco3)cc2Cl)CCN1C1CCN(Cc2ccc(Cl)cc2[18F])CC1 [[^18F]1]
- time radiotracer is stable [1]: more than 10 h
- blocking effect in BAT (from AUC of TACs) [2, 3]: 23.4%
- blocking effect in atherosclerotic abdominal aorta (from AUC of TACs) [2, 3]: 16.9%
- standard uptake value (SUV), BAT region ([2]; blocking study with 1·HCl 5 mg/kg i.v., stated for both groups): 1.2–1.5
